Key:
[1] = Cytotoxicity assay (sulforhodamine B, 4 days); type: cell-based; conditions: bovine; MDBK cells, 4 days incubation, concentration reducing cell number by 50%; preliminary results
Experimental: (§1) The test compounds were dissolved in DMSO at an initial concentration of 200 μM and then were serially diluted in culture medium.
(§2) Cells are seeded at a rate of between 5×10^3 and 5×10^4/well into 96-well plates in growth medium overnight at 37° C. in a humidified CO2 (5%) atmosphere. New growth medium containing serial dilutions of the drugs is then added. After incubation for 4 days, cultures are fixed in 50% TCA and stained with sulforhodamineB. The optical density was read at 550 nm. The cytotoxic concentration was expressed as the concentration required to reduce the cell number by 50% (CC50).

[2] = Cell Protection Assay (CPA), uninfected cells (cytotoxicity); type: cell-based; conditions: bovine, uninfected MDBK cells, Table 2, Cell Protection Assay
Experimental: as §2
(§3) The assay is performed essentially as described by Baginski, S. G.; Pevear, D. C.; Seipel, M.; Sun, S. C. C.; Benetatos, C. A.; Chunduru, S. K.; Rice, C. M. and M. S. Collett “Mechanism of action of a pestivirus antiviral compound” PNAS USA 2000, 97(14), 7981-7986. MDBK cells (ATCC) are seeded onto 96-well culture plates (4,000 cells per well) 24 hours before use. After infection with BVDV (strain NADL, ATCC) at a multiplicity of infection (MOI) of 0.02 plaque forming units (PFU) per cell, serial dilutions of test compounds are added to both infected and uninfected cells in a final concentration of 0.5% DMSO in growth medium. Each dilution is tested in quadruplicate. Cell densities and virus inocula are adjusted to ensure continuous cell growth throughout the experiment and to achieve more than 90% virus-induced cell destruction in the untreated controls after four days post-infection. After four days, plates are fixed with 50% TCA and stained with sulforhodamine B. The optical density of the wells is read in a microplate reader at 550 nm. The 50% effective concentration (EC50) values are defined as the compound concentration that achieved 50% reduction of cytopathic effect of the virus.

[3] = test system: BVDV (strain NADL); assay: Cell Protection Assay (CPA), BVDV-infected MDBK cells; type: cell-based, Bovine Viral Diarrhea virus; conditions: MOI 0.02, MDBK cells, four days post-infection, 50% reduction of cytopathic effect
Experimental: as §1, §3

[4] = test system: MDBK; assay: Cytotoxicity assay (sulforhodamine B, 4 days); type: cell-based; conditions: MDBK cells, 4 days incubation, concentration reducing cell number by 50%; preliminary results
Experimental: as §1, §2

[5] = test system: MDBK cells; assay: Cell Protection Assay (CPA), uninfected cells (cytotoxicity); type: cell-based; conditions: Table 2, Cell Protection Assay
Experimental: as §2, §3

[6] = Bovine viral diarrhea virus isolates and strains, 96 h

Row | SMILES | CC50 at 4 days [1] [µM] | melting point | CC50 at 4 days [2] [µM] | EC50 [3, 6] [µM] | CC50 [4] [µM] | CC50 [5] [µM] | EC50 [3] [µM]
1 | C[C@]1(CO)O[C@@H](n2ccc(=S)[nH]c2=O)[C@H](O)[C@@H]1O [β-D-4'-CH3-ribo-4-thioU, 1-(4-C-methyl-β-D-ribofuranosyl)4-thio-uracil] | > 250 | 65 to 70 °C (dec.) | > 250 | > 250 | – | – | –
2 | C[C@]1(CO)O[C@@H](n2cc(F)c(=O)[nH]c2=O)[C@H](O)[C@@H]1O [β-D-4'-CH3-ribo-5-fluoroU] | – | – | – | – | > 167 | > 167 | > 167
3 | C[C@]1(CO)O[C@@H](n2cnc3c(N)ncnc32)[C@H](O)[C@@H]1O [β-D-4'-CH3-riboA, 9-(4-C-methyl-β-D-ribofuranosyl) adenine] | > 250 | 96 to 97 °C (dec.) | > 250 | > 250 | – | – | –
4 | C[C@]1(CO)O[C@@H](n2ccc(N)nc2=O)[C@H](O)[C@@H]1O [β-D-4'-CH3-riboC, 1-(4-C-methyl-β-D-ribofuranosyl)cytosine] | > 250 | – | > 250 | 9 | – | – | –
5 | C[C@]1(CO)O[C@@H](n2cnc3c(=O)[nH]c(N)nc32)[C@H](O)[C@@H]1O [β-D-4'-CH3-riboG, 9-(4-C-methyl-β-D-ribofuranosyl) guanine] | > 250 | – | > 250 | 43 | – | – | –
6 | Cc1cn([C@@H]2O[C@](C)(CO)[C@@H](O)[C@H]2O)c(=O)[nH]c1=O [β-D-4'-CH3-riboT, 1-(4-C-methyl-β-D-ribofuranosyl)thymine] | > 250 | 258 to 260 °C (dec.) | > 250 | > 250 | – | – | –

Source: US20040006002A1, “Methods and compositions for treating flaviviruses and pestiviruses using 4'-modified nucleoside” (priority 2001, published 2004)
